System: HCVpp (HCV E1/E2, isolate Con1) entry into Hep3B2.1-7 cells
Test: microbe, parasite or virus in culture
Type: cell-based
Conditions: Hepatitis C virus, 72 h, read-out: EC50 (nM) (Ex. 58)

Row | SMILES | EC50 [nM]
1 | COC(=O)c1ccc2[nH]c3c(c2c1)C(C)(C)CC(C)(C)C3=O [Compound 1107] | 195
2 | CC1(C)CC(C)(C)c2c([nH]c3ccc(C(=O)NC4CCN(S(C)(=O)=O)C4)cc23)C1=O (stereo not drawn) [Compound 2058] | 39
3 | CC1(C)CC2(CCC2)c2c([nH]c3ccc(C(=O)NC4CCN(C(=O)c5nc[nH]n5)C4)cc23)C1=O (stereo not drawn) [Compound 6016] | 3.4
4 | CC1(C)CC2(CCOCC2)C(=O)c2[nH]c3ccc(C(=O)NC4CCS(=O)(=O)C4)cc3c21 (stereo not drawn) [Compound 5003] | 385
5 | O=C(NC1CCS(=O)(=O)C1)c1ccc2[nH]c3c(c2c1)C1(CCCC3=O)CC1 (stereo not drawn) [Compound 1104] | 122
6 | CC1(C)CC(C)(C)c2c([nH]c3ccc(C(=O)NC4CCS(=O)(=O)CC4)cc23)C1=O [Compound 7008] | 201
7 | CC1CC(C)(C)c2c([nH]c3ccc(C(=O)NC4CCS(=O)(=O)C4)cc23)C1=O (stereo not drawn) [Compound 5014] | 187
8 | CC1(C)CC(C)(C)c2c([nH]c3ccc(C(=O)Nc4cnccn4)cc23)C1=O [Compound 7050] | 88
9 | COCC1(C)CC(C)(C)c2c([nH]c3ccc(C(=O)NC4CCN(C(=O)c5n[nH]c(N)n5)C4)cc23)C1=O (stereo not drawn) [Compound 5017] | 9.3
10 | CC1(C)CC(C)(C)c2c([nH]c3ccc(C(=O)NC4CCN(CCF)C4)cc23)C1=O (stereo not drawn) [Compound 2003] | 117
11 | CC1(C)CC(C)(C)c2c([nH]c3ccc(C(=O)NC4CCN(C(=O)c5ccccn5)C4)cc23)C1=O (stereo not drawn) [Compound 2026] | 36
12 | CC1(C)CC(C)(C)c2c([nH]c3cnc(C(=O)NCc4ccccn4)cc23)C1=O [Compound 9004] | 85
13 | CC1(C)CC(C)(C)c2c([nH]c3ccc(C(=O)N[C@H]4CC[C@H](NCC5CC5)CC4)cc23)C1=O [Compound 7019] | 82
14 | Cn1cncc1CNC(=O)CNC(=O)c1ccc2[nH]c3c(c2c1)C(C)(C)CC(C)(C)C3=O [Compound 7010] | 126
15 | CC1(C)CC2(CC2)c2c([nH]c3ccc(C(=O)NCCCn4cncn4)cc23)C1=O [Compound 6001] | 66
16 | CC1(C)CC(C)(C)c2c([nH]c3ccc(-c4nnc(NC5CCS(=O)(=O)C5)o4)cc23)C1=O (stereo not drawn) [Compound 1103] | 34
17 | CC1(C)CC2(CC2)C(=O)c2[nH]c3ccc(C(=O)NC4CCN(C(=O)c5nc[nH]n5)C4)cc3c21 (stereo not drawn) [Compound 5008] | 22
18 | CN1CCC[C@H](NC(=O)c2ccc3[nH]c4c(c3c2)C(C)(C)CC(C)(C)C4=O)C1 [Compound 3006] | 102
